{
  "source": "patent US20220233743A1",
  "about": "“WOUND CLOSURE ENHANCEMENT METHODS AND MATERIALS VIA MANIPULATION OR AUGMENTATION OF LIPIN-1” (Board of Supervisors of Louisiana State University and …, priority 2019, published 2022)",
  "system": "BMDMs",
  "experiment": "OCR in response to AC with and without etomoxir, Seahorse",
  "assay_type": "cell-based, mouse",
  "settings": "for OCR in response to AC with pretreatment of etomoxir: 40 μM etomoxir 15 min, then AC 4:1",
  "protocol": "Thymocytes (Jurkats) were subjected to UV light for 20 min in a 10-cm dish in sterile PBS. Cells were collected, and media was changed to D10 media followed by a 2-h incubation at 37° C. to allow for cells to become apoptotic. Cells were collected and centrifuged at 400×g for 5 min. Cells were resuspended in 2×10^−6 M PKH26 for 3 min. Staining was stopped by adding equivalent volumes of FBS.\nBMDMs collected from lipin-1^mEnzyKO, lipin-1^mKO, and littermate control mice were seeded at a density of 150,000 cells per well on XF24 cell culture microplates and allowed to incubate for 4 h. Experiments were conducted in XF assay medium containing 25 mM glucose, 2 mM 1-glutamine, and 1 mM sodium pyruvate and analyzed using a Seahorse XFe 24 extracellular flux analyzer (Agilent Technologies). Where indicated, the following were injected: ATP-synthesis inhibitor oligomycin (Oligo; 1 μM), carbonyl cyanide 4-(trifluoromethoxy)phenylhydrazone (FCCP) (2 μM) to uncouple ATP synthesis, rotenone (100 nM) to block complex I, and antimycin A (1 μM) (Sigma-Aldrich) to block complex III. Oxygen consumption rate (OCR) was analyzed using Wave Desktop software (Agilent Technologies).\nThe inventors have shown that lipin-1 is required for increased OCR in response to free fatty acids, but the inventors wanted to know if lipin-1 regulates β-oxidation in response to AC during efferocytosis. BMDMs from WT, lipin-1^mEnzyKO, and lipin-1^mKO mice were either pretreated with or without etomoxir to prevent fatty acid transport into the mitochondria followed by the addition of AC to the macrophages at an AC/BMDM ratio of 4:1. AC were incubated with BMDMs for 30 min prior to the start of Seahorse analysis. […] Etomoxir treatment of unstimulated (no AC) WT, lipin-1 EKO, and lipin-1 KO macrophages allowed the inventors to determine basal lipid use.",
  "data": [
    {"smiles": "CCOC(=O)[C@@]1(CCCCCCOc2ccc(Cl)cc2)CO1", "note": "[etomoxir]", "values": [
      {"measurement": "OCR in response to AC with pretreatment of etomoxir", "setting": "WT macrophages", "result": "significant reduction"},
      {"measurement": "OCR in response to AC with pretreatment of etomoxir", "setting": "lipin-1 EKO macrophages", "result": "significant reduction"},
      {"measurement": "OCR in response to AC with pretreatment of etomoxir", "setting": "lipin-1 KO macrophages", "result": "no significant difference in OCR"},
      {"measurement": "OCR with etomoxir alone (basal lipid use)", "setting": "unstimulated (no AC) WT macrophages", "result": "significant reduction in OCR"},
      {"measurement": "OCR with etomoxir alone (basal lipid use)", "setting": "unstimulated (no AC) lipin-1 EKO macrophages", "result": "significant reduction in OCR"},
      {"measurement": "OCR with etomoxir alone (basal lipid use)", "setting": "unstimulated (no AC) lipin-1 KO macrophages", "result": "significant reduction in OCR"}
    ]}
  ]
}
